{
  "source": "paper PMC10574094",
  "about": "“Discovery of a SHP2 Degrader with In Vivo Anti-Tumor Activity” (Molecules, 2023)",
  "key": {"[1]": {"system": "pERK1/2", "assay": "pERK1/2 inhibition by Western blotting in KYSE-520 cells", "assay_type": "cell-based", "conditions": "Homo sapiens, 16 h", "procedure": "(§1) HEK293, SKBR3, U2OS, MCF7 and A549 cells were grown in DMEM supplemented with 10% FBS, penicillin (50 units/mL), and streptomycin (50 μg/mL) in a 37 °C incubator containing 5% CO2. KYSE-520 and H358 cells were grown in RPMI-1640 supplemented with 10% FBS, penicillin (50 units/mL), and streptomycin (50 μg/mL) in a 37 °C incubator containing 5% CO2. For western-blot analysis, protein samples were separated by SDS-PAGE, transferred to nitrocellulose membranes, and incubated overnight at 4 °C with corresponding primary antibodies diluted in 5% BSA in phosphate-buffered saline Tween (PBST). SuperSignal™ West Pico PLUS (PI34580; Thermo Scientific) was used to visualize the antibodies in the bioanalytical imaging system (Azure Biosystems c500). Anti-p-ERK1/2 (T202/Y204) (4370), and anti-ERK1/2 (4696) were purchased from Cell Signaling Technology. Anti-GAPDH (sc-365062), anti-SHP2 (sc-7384), anti-SHP1 (sc-7289), and anti-Actin (sc-8432) antibodies were purchased from Santa Cruz. Anti-PTP1B (ab244207) antibody was purchased from Abcam. For colony formation assay, a total of approximately 200–500 cells were seeded to each well in a 12-well plate. The wells were then treated with DMSO, compound P9 and 3 at 37 °C for 3 weeks, gently washed, and stained with crystal violet."}, "[2]": {"target": "T1, SHP2 (Homo sapiens, UniProt Q06124)", "T1 sequence (Q06124 1-593)": "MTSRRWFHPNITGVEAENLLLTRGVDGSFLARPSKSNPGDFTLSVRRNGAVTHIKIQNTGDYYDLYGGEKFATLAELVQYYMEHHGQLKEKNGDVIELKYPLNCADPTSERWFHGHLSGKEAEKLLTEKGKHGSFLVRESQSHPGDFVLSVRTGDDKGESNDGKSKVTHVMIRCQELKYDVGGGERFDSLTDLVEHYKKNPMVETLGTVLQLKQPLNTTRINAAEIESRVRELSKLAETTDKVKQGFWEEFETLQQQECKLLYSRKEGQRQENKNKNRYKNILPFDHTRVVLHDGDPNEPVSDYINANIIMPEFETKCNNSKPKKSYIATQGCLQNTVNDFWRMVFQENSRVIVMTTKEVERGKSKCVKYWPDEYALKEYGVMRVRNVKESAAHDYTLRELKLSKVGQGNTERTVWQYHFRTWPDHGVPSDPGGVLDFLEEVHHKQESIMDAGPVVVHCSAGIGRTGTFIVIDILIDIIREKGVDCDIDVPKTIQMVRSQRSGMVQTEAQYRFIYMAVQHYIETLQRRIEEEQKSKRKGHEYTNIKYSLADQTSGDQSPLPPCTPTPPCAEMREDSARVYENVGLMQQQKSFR", "assay": "SHP2 degradation by Western blotting in KYSE-520 cells", "assay_type": "cell-based", "design": "endogenous in cells; host or cells: KYSE-520", "conditions": "16 h", "procedure": "as §1"}, "[3]": {"system": "pERK1/2", "assay": "pERK1/2 level in KYSE-520 tumor homogenates (Western blot)", "assay_type": "in vivo, mice", "conditions": "whole tumor homogenates, 50 mg/kg P9 IP", "procedure": "as §1, with “For colony formation assay, a total of approximately 200–500 cells were seeded to each well in a 12-well plate. The wells were then treated with DMSO, compound P9 and 3 at 37 °C for 3 weeks, gently washed, and stained with crystal violet.” left out\n(§2) For the xenograft tumor study, KYSE-520 cells were suspended in PBS and a total of 3 × 10^6 cells (100 μL) were subcutaneously implanted into both the left and right flank using a 27-gauge needle. Tumor volume was calculated using the formula V = (W^2 × L)/2 for caliper measurements. […]"}, "[4]": {"target": "T1, SHP2", "assay": "SHP2 level in KYSE-520 tumor homogenates (Western blot)", "assay_type": "in vivo, mice", "design": "from tissue; host or cells: KYSE-520 xenograft tumour from nude mice, whole tumour homogenate", "conditions": "whole tumor homogenates, 50 mg/kg P9 IP", "procedure": "as §1, with “For colony formation assay, a total of approximately 200–500 cells were seeded to each well in a 12-well plate. The wells were then treated with DMSO, compound P9 and 3 at 37 °C for 3 weeks, gently washed, and stained with crystal violet.” left out\nas §2"}, "[5]": {"system": "other PTPs", "assay": "PTP inhibition assay, panel of representative PTP family members", "assay_type": "biochemical", "conditions": "up to 10 µM P9 concentration", "procedure": "PTP activity was assayed using p-nitrophenyl phosphate (pNPP) as a substrate in DMG buffer (50 mM DMG, pH 7.0, 1 mM EDTA, 150 mM NaCl, 2 mM DTT, 0.1 mg/mL BSA) at 25 °C. The assays were performed in 96-well plates. To determine the IC50 values, the reaction was initiated by the addition of enzyme (final concentration = 10 nM) to a reaction mixture (0.2 mL) containing pNPP (at a final concentration close to the Kms of tested enzymes, in specific: 0.05 mM for CDC-14A; 0.5 mM for FAP-1; 2 mM for TC-PTP, PTP1B, STEP, LWM-PTP, and PTPα; 3 mM for SHP1; 4 mM for Laforin; 5 mM for LYP, CD45, and VHR; 6 mM for PTP-MEG2 and HePTP) with various concentrations of inhibitors. The reaction rate was measured using a SpectraMax Plus 384 Microplate Spectrophotometer (Molecular Devices, San Jose, CA, USA). Data were fitted using the SigmaPlot Enzyme Kinetics Module (Systat Software, Inc., San Jose, CA, USA)."}, "[6]": {"system": "KYSE-520 xenograft", "assay": "KYSE-520 xenograft tumor growth", "assay_type": "in vivo, mice", "conditions": "18 days", "procedure": "Experiments on mice were carried out in accordance with the regulations of the Institutional Animal Care and Use Committees at Purdue University. All mice were housed under pathogen-free conditions in the animal facility and received autoclaved water and food. Eight to ten weeks-old Nude mice were used in the study.\nFor the xenograft tumor study, KYSE-520 cells were suspended in PBS and a total of 3 × 10^6 cells (100 μL) were subcutaneously implanted into both the left and right flank using a 27-gauge needle. Tumor volume was calculated using the formula V = (W^2 × L)/2 for caliper measurements. Once the tumor volume reaches 200 mm^3, daily intraperitoneal injection of either control, 25 mg/kg or 50 mg/kg of compound P9 was performed. Mice were sacrificed after injection for 18 days, and tumors were collected for biochemical analysis."}},
  "data": [
    {"smiles": "Cc1ncsc1-c1ccc([C@H](C)NC(=O)[C@@H]2C[C@@H](O)CN2C(=O)[C@@H](NC(=O)CCCCCCCCCN2CCN(C(=O)CCCCCC3(CN)CCN(c4cnc(Sc5cccc(Cl)c5Cl)c(N)n4)CC3)CC2)C(C)(C)C)cc1", "note": "[P9, (2S,4R)-1-((S)-2-(10-(4-(6-(1-(6-amino-5-((2,3-dichlorophenyl)thio)pyrazin-2-yl)-4-(aminomethyl)piperidin-4-yl)hexanoyl)piperazin-1-yl)decanamido)-3,3-dimethylbutanoyl)-4-hydroxy-N-((S)-1-(4-(4-methylthiazol-5-yl)phenyl)ethyl)pyrrolidine-2-carboxamide]", "values": [
      {"measurement": "EC50", "setting": "[1]", "value": "~240", "unit": "nM"},
      {"measurement": "DC50", "setting": "[2]", "value": "~130", "unit": "nM"},
      {"measurement": "pERK1/2 level, % of the control group", "setting": "[3]", "value": "24 ± 12", "unit": "%"},
      {"measurement": "SHP2 level, % of the control group", "setting": "[4]", "value": "34 ± 18", "unit": "%"},
      {"measurement": "inhibition towards other PTPs", "setting": "[5]", "value": "no significant inhibition"},
      {"measurement": "effect on tumor burden", "setting": "[6]; 25 mg/kg daily IP", "value": "decrease in tumor burden"},
      {"measurement": "effect on tumor burden", "setting": "[6]; 50 mg/kg daily IP", "value": "nearly complete tumor regression"}
    ]}
  ]
}
